Patent US20260092071A1, “COMPOUNDS AND COMPOSITIONS AS SMARCA2/4 DEGRADERS AND USES THEREOF” (REGENTS OF THE UNIVERSITY OF MICHIGAN, priority 2022, published 2026)

Molecular target: SMARCA2 (Homo sapiens, UniProt P51531)
Experiment: HiBiT assay for protein degradation, Hela SMARCA2-HiBiT cells (A series)
Format: cell-based
Design: Hela cells were genetically modified via CRISPR/Cas9 to fuse HiBiT to the carboxy terminus of SMARCA2; host or cells: HeLa (CRISPR/Cas9 HiBiT knock-in)
Settings: Hela SMARCA2-HiBiT cells, 24 hours treatment; for Dmax: read-out: SMARC A2 Hela HiBit Dmax (%); for DC50: read-out: SMARC A2 Hela HiBit DC50
Method: Hela cells were genetically modified via CRISPR/Cas9 to fuse HiBiT to the carboxy terminus of SMARCA2 (Promega CS302365) or SMARCA4 (Promega CS3023225). Cells were cultured in DMEM containing 10% FBS and 1% (Vol:Vol) penicillin-streptomycin. […] At the end of experiment, levels of SMARCA2 or SMARCA4 expression were assessed with Nano-Glo® HiBiT Lytic Detection Assay (Promega N3050). IC50 was obtained using the GraphPad Prism data analysis software.

SMARCA2, sequence (P51531 whole entry): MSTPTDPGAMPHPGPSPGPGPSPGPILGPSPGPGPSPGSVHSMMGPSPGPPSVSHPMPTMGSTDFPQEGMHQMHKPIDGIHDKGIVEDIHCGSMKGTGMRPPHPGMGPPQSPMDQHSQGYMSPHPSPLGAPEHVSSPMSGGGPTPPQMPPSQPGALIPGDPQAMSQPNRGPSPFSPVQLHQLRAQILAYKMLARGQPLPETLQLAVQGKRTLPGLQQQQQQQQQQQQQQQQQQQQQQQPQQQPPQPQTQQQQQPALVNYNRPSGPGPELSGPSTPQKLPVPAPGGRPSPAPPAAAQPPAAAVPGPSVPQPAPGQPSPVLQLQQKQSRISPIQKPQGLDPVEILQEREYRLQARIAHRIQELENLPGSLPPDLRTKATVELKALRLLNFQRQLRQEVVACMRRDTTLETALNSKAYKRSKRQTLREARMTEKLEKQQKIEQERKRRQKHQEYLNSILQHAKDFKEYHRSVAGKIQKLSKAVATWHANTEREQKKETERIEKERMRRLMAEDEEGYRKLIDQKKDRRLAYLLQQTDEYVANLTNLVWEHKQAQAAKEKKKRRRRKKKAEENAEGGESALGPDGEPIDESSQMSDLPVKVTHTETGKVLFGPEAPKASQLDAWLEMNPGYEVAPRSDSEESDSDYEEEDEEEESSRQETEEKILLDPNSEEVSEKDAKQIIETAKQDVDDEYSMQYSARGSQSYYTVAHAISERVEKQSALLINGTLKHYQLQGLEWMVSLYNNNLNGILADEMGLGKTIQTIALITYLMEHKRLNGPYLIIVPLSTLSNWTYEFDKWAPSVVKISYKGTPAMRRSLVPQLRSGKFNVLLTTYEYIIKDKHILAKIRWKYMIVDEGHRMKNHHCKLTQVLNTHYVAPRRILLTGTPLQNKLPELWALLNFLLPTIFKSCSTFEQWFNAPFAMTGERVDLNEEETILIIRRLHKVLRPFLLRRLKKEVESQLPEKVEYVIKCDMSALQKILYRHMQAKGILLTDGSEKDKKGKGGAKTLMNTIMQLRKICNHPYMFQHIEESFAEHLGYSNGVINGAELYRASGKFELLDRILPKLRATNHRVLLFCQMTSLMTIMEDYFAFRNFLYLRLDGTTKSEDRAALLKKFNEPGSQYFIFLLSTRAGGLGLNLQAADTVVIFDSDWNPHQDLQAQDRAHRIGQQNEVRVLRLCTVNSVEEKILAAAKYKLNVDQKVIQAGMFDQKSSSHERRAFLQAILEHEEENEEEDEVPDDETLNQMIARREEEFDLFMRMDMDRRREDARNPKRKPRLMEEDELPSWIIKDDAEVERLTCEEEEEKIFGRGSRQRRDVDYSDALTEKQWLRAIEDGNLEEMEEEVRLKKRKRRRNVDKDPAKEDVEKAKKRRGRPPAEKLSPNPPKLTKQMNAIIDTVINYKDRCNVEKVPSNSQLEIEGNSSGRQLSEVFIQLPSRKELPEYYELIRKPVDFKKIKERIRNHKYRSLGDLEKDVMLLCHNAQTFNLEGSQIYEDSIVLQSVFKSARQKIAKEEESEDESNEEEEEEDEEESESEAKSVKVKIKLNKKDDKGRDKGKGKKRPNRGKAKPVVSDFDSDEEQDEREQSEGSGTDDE

Row | Structure (SMILES) | Dmax [%] | DC50 [nM]
1 | Cc1ncsc1-c1ccc([C@H](CN2CCOCC2)NC(=O)[C@@H]2C[C@@H](O)CN2C(=O)[C@@H](n2cc([C@H]3CC[C@H](CN4CCC(c5ccc6c(n5)-n5c(nc(=O)c7c(Br)cccc75)C65CCCCC5)CC4)CC3)nn2)C(C)(C)C)cc1 [Compound A52, (2S,4R)-1-((S)-2-(4-((1r,4S)-4-((4-(4′-bromo-5′-oxo-5′H-spiro[cyclohexane-1,7′-pyrido[3′,2′: 4,5]pyrrolo[1,2-a]quinazolin]-10′-yl)piperidin-1-yl)methyl)cyclohexyl)-1H-1,2,3-triazol-1-yl)-3,3-dimethylbutanoyl)-4-hydroxy-N—((R)-1-(4-(4-methylthiazol-5-yl)phenyl)-2-morpholinoethyl)pyrrolidine-2-carboxamide] | 70 to 90 | < 100
2 | Cc1ncsc1-c1ccc([C@H](CN2CCOCC2)NC(=O)[C@@H]2C[C@@H](O)CN2C(=O)[C@@H](n2cc([C@H]3CC[C@H](CN4CCC(c5ccc6c(c5)-n5c(nc(=O)c7c(Br)cccc75)C65CCCCC5)CC4)CC3)nn2)C(C)(C)C)cc1 [Compound A69, (2S,4R)-1-((S)-2-(4-((1r,4S)-4-((4-(4′-bromo-5′-oxo-5′H-spiro[cyclohexane-1,7′-indolo[1,2-a]quinazolin]-10′-yl)piperidin-1-yl)methyl)cyclohexyl)-1H-1,2,3-triazol-1-yl)-3,3-dimethylbutanoyl)-4-hydroxy-N—((R)-1-(4-(4-methylthiazol-5-yl)phenyl)-2-morpholinoethyl)pyrrolidine-2-carboxamide] | > 90 | < 100
3 | Cc1ncsc1-c1ccc([C@H](CCN2CC(C)(F)C2)NC(=O)[C@@H]2C[C@@H](O)CN2C(=O)[C@@H](n2cc([C@H]3CC[C@H](CN4CCC(c5ccc6c(c5)-n5c(nc(=O)c7c(Cl)cccc75)C65CCCCC5)CC4)CC3)nn2)C(C)(C)C)cc1 [Compound A79, (2S,4R)-1-((S)-2-(4-((1r,4S)-4-((4-(4′-chloro-5′-oxo-5′H-spiro[cyclohexane-1,7′-indolo[1,2-a]quinazolin]-10′-yl)piperidin-1-yl)methyl)cyclohexyl)-1H-1,2,3-triazol-1-yl)-3,3-dimethylbutanoyl)-N—((S)-3-(3-fluoro-3-methylazetidin-1-yl)-1-(4-(4-methylthiazol-5-yl)phenyl)propyl)-4-hydroxypyrrolidine-2-carboxamide] | 70 to 90 | < 10

Results, then the molecule that gave them:

Row | Dmax [%] | DC50 [nM] | Structure (SMILES)
4 | 70 to 90 | 10 to 100 | Cc1ncsc1-c1ccc([C@H](CN2CCOCC2)NC(=O)[C@@H]2C[C@@H](O)CN2C(=O)[C@@H](n2cc([C@H]3CC[C@H](CN4CCC(c5ccc6c(n5)-n5c(nc(=O)c7c(Cl)cccc75)C65CCCCC5)CC4)CC3)nn2)C(C)(C)C)cc1 [Compound A77, (2S,4R)-1-((S)-2-(4-((1r,4S)-4-((4-(4′-chloro-5′-oxo-5′H-spiro[cyclohexane-1,7′-pyrido[3′,2′: 4,5]pyrrolo[1,2-a]quinazolin]-10′-yl)piperidin-1-yl)methyl)cyclohexyl)-1H-1,2,3-triazol-1-yl)-3,3-dimethylbutanoyl)-4-hydroxy-N—((R)-1-(4-(4-methylthiazol-5-yl)phenyl)-2-morpholinoethyl)pyrrolidine-2-carboxamide]
5 | 70 to 90 | 10 to 100 | Cc1ncsc1-c1ccc([C@H](CCN2CC(C)(O)C2)NC(=O)[C@@H]2C[C@@H](O)CN2C(=O)[C@@H](n2cc([C@H]3CC[C@H](CN4CCC(c5ccc6c(c5)-n5c(nc(=O)c7c(Cl)cccc75)C65CCCCC5)CC4)CC3)nn2)C(C)(C)C)cc1 [Compound A80, (2S,4R)-1-((S)-2-(4-((1r,4S)-4-((4-(4′-chloro-5′-oxo-5′H-spiro[cyclohexane-1,7′-indolo[1,2-a]quinazolin]-10′-yl)piperidin-1-yl)methyl)cyclohexyl)-1H-1,2,3-triazol-1-yl)-3,3-dimethylbutanoyl)-4-hydroxy-N—((S)-3-(3-hydroxy-3-methylazetidin-1-yl)-1-(4-(4-methylthiazol-5-yl)phenyl)propyl)pyrrolidine-2-carboxamide]
